Values of other authors in patent US20240299293A1 (priority 2020, published 2024).

Test system: human coronaviruses, including CoV-229E and SARS-COV, and animal coronaviruses
Settings: for elimination of coronaviruses: hexachlorophene, 2% glutaraldehyde, 1% povidone-iodine, benzalkonium chloride, chlorhexidine

Q: With `[H]/N=C(\N/C(=N/[H])NCCCCCCNC(=N)NC(=N)Nc1ccc(Cl)cc1)Nc1ccc(Cl)cc1` [chlorhexidine] as the compound, how does the elimination of coronaviruses read?
A: The elimination of coronaviruses was “only if 70% ethanol is present in the solution”.

Q: For benzalkonium chloride, which elimination of coronaviruses is on record?
A: Its elimination of coronaviruses is “only if 70% ethanol is present in the solution”.

Q: With `OCl` [sodium hypochlorite] as the compound, how does the susceptibility of coronaviruses (6% sodium hypochlorite solutions) read?
A: The susceptibility of coronaviruses was “variable”.

Q: Which elimination of coronaviruses does the source give for `O=CCCCC=O` [glutaraldehyde] here?
A: The elimination of coronaviruses was “satisfactory elimination rates”.

Q: With povidone-iodine as the compound, how does the elimination of coronaviruses read?
A: The elimination of coronaviruses was “satisfactory elimination rates”.

Q: For `Oc1c(Cl)cc(Cl)c(Cl)c1Cc1c(O)c(Cl)cc(Cl)c1Cl` [hexachlorophene], which elimination of coronaviruses is on record?
A: Its elimination of coronaviruses is “satisfactory elimination rates”.

Q: For `CCO` [ethanol], which reduction of viability (70% ethanol, viruses in suspension and dried on surfaces, within seconds) is on record?
A: The reduction of viability was “greater than 3 log”.
